Assay results reported in patent US12479827B2, “Heteroaromatic carboxamide derivatives as plasma kallikrein inhibitors” (Boehringer Ingelheim International GmbH, priority 2020, dated 2025).
Peptide text beside a SMILES is read from it. * marks the point of attachment. AMC = Cc1cc(=O)oc2cc(N*)ccc12

Tests used:
Assay type in all cases: biochemical
Human PKK [1] = biological target: T1, Human PKK (Homo sapiens, UniProt P03952); assay: Inhibition of PKK using an endpoint assay (human PKK); settings: fluorogenic substrate H-Pro-Phe-Arg-AMC, 1 h room temperature, method names human or rat PKK, table does not say which
T1 construct: purchased Enzyme Research Laboratories
T1 sequence (P03952 20-390 limits assumed): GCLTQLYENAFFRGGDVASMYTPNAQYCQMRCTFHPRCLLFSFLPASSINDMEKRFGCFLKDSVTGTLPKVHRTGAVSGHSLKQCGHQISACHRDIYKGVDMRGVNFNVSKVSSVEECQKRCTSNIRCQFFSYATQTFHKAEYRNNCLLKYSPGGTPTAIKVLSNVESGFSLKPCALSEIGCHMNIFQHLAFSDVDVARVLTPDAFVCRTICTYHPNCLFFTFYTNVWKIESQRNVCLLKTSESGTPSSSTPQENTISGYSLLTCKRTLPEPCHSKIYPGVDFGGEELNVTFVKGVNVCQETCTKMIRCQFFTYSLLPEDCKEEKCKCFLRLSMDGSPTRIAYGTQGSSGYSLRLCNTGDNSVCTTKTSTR
T1 sequence (P03952 391-638 limits assumed): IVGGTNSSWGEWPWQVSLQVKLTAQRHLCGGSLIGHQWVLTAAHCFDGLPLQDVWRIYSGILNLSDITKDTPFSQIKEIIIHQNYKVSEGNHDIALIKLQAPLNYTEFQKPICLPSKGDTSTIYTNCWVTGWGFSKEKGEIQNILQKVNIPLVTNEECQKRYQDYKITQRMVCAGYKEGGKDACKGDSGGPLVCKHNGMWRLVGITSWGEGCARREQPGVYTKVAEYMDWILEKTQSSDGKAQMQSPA
Outline: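 Human PKK inhibition measured in 100 mM Tris, 150 mM NaCl, pH 7.8, 0.1% BSA, 0.05% Tween20, 1% DMSO. Endpoint format: reaction stopped with PPACK II at 1 μM final, fluorescence read at 355 nm excitation/460 nm emission.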

[2] = biological target: T2, PKK in kaolin activated human platelet poor plasma (Homo sapiens, UniProt P03952); assay: Inhibition of PKK in kaolin activated human PPP; settings: 25-750 μg/mL kaolin, global fit, text b200 calls the values IC90;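 further: readout is the rate of fluorogenic substrate cleavage in rfu per min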
T2 construct: Platelet poor plasma (PPP) obtained from human wholeblood; from tissue
T2 sequence (P03952 391-638 limits assumed): as above
T2 sequence (P03952 20-390 limits assumed): as the sequence (P03952 20-390 limits assumed) above
Experimental: Platelet poor plasma (PPP) obtained from human wholeblood, anticoagulated with Na-Citrate, is incubated with various concentrations of the test compound together with either 25, 75, 250, or 750 μg/mL kaolin in assay buffer for 20 min at 37° C. such that for each kaolin dose used a concentration response is obtained for the test compound.

human TK1 = biological target: T3, human TK1 (Homo sapiens, UniProt P06870); assay: Inhibition of TK1 (Ki); settings: activated human TK1, substrate H-Pro-Phe-Arg-AMC, 24° C.
T3 construct: purchased R&D Systems
T3 sequence (P06870 25-262): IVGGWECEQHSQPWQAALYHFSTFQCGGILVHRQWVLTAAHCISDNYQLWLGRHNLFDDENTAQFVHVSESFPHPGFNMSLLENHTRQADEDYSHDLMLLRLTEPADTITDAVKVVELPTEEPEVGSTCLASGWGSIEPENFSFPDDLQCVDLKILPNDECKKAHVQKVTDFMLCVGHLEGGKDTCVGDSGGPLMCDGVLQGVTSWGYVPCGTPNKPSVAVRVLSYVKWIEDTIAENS
Outline: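 Trypsin-activated human TK1 (31.25 nM) incubated at 24° C with 0.1 mM H-Pro-Phe-Arg-AMC and compound in Tris pH 7.8, 150 mM NaCl, 0.1% BSA, 0.05% Tween20, 1% DMSO. AMC fluorescence (ex 350/em 450 nm) read kinetically over 16 min; IC50 from four-parameter fit, converted to Ki using substrate KM.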

Human PKK [3] = biological target: T1, Human PKK; assay: Inhibition of PKK (Ki); settings: substrate KM, enzyme PKK
Experimental: The ability of compounds of formula (I) to inhibit plasma kallikrein (PKK), Factor XIIa (FXIIa), Factor XIa (FXIa), Factor Xa (FXa), Factor IIa (alpha-thrombin; FIIa), plasmin, trypsin, tissue kallikrein 1 (TK1), Factor VIIa (FVIIa), or FVIIa complexed with Tissue Factor, phospholipids and CaCl2 (FVIIa/TF/PL/CaCl2) is determined using the following biochemical assays in assay buffer (100 mM Tris, 150 mM NaCL, adjusted to a pH of 7.8 with HCl, and containing 0.1% (w/v) BSA and 0.05% (v/v) Tween20) in the presence of 1% (v/v) DMSO:
Human PKK (1.78 nM or 0.025 U/mL; Enzyme Research Laboratories) is incubated at 24° C. with 0.25 mM fluorogenic substrate H-Pro-Phe-Arg-AMC (11295 from Bachem) and various concentrations of the test compound in assay buffer. Measurements are performed in a kinetic interval every 2nd minute for 16 min using a Spectramax M5 (Molecular Devices) with the following settings of the wavelength excitation of 350 nm and wavelength emission of 450 nm.
The pIC50 values are then fitted using a four-parametric fitting procedure using GraphPad Prism (version 6; GraphPad Software, Inc.). Respective Ki values are obtained by correction of the IC50 values for the respective KM value of the used substrate (see Table A for the obtained KM values of the used substrates) using the following formula:
[formula] Where the IC50 is in molar and the KM value in mM.

| IC50 (Human PKK [1]) [nM] | IC50 [2] [nM] | Ki (human TK1) [nM] | Km (Human PKK [3]) [µM] | Compound |
| --- | --- | --- | --- | --- |
| 0.8 | 398 | > 10000 | – | Cn1cnc2c1CC[C@H]2NC(=O)c1cnn(Cc2ccc(N3CC4CC4C3)c(C#N)c2F)c1 (stereo partly drawn) [Example 198, 1-[(4-{3-azabicyclo[3.1.0]hexan-3-yl}-3-cyano-2-fluorophenyl)methyl]-N-[(4R)-1-methyl-1H,4H,5H,6H-cyclopenta[d]imidazol-4-yl]-1H-pyrazole-4-carboxamide] |
| 1 | 324 | > 10000 | – | Cc1nc(N2CC3C(C2)C3(F)F)ccc1Cn1cc(C(=O)N[C@@H]2CCc3c2ncn3C)c(CO)n1 (stereo partly drawn) [Example 107, 1-[(6-{6,6-Difluoro-3-azabicyclo[3.1.0]hexan-3-yl}-2-methylpyridin-3-yl)methyl]-3-(hydroxymethyl)-N-[(4R)-1-methyl-1H,4H,5H,6H-cyclopenta[d]imidazol-4-yl]-1H-pyrazole-4-carboxamide] |
| 0.6 | 681 | > 10000 | – | COCc1nn(Cc2ccc(N3CC4C(C3)C4(F)F)nc2C)cc1C(=O)N[C@@H]1CCc2c1ncn2C (stereo partly drawn) [Example 126, 1-[(6-{6,6-Difluoro-3-azabicyclo[3.1.0]hexan-3-yl}-2-methylpyridin-3-yl)methyl]-3-(methoxymethyl)-N-[(4R)-1-methyl-1H,4H,5H,6H-cyclopenta[d]imidazol-4-yl]-1H-pyrazole-4-carboxamide] |
| 0.5 | 180 | > 10000 | – | CCc1nc(N2CC3C(C2)C3(F)F)ccc1Cn1cc(C(=O)N[C@@H]2CCc3c2ncn3C)cn1 (stereo partly drawn) [Example 36, 1-[(6-{6,6-Difluoro-3-azabicyclo[3.1.0]hexan-3-yl}-2-ethylpyridin-3-yl)methyl]-N-[(4R)-1-methyl-1H,4H,5H,6H-cyclopenta[d]imidazol-4-yl]-1H-pyrazole-4-carboxamide] |
| 0.5 | 249 | > 10000 | – | CCc1nc(N2CC3CC3C2)ccc1Cn1cc(C(=O)N[C@@H]2CCc3c2ncn3C)cn1 (stereo partly drawn) [Example 22, 1-[(6-{3-Azabicyclo[3.1.0]hexan-3-yl}-2-ethylpyridin-3-yl)methyl]-N-[(4R)-1-methyl-1H,4H,5H,6H-cyclopenta[d]imidazol-4-yl]-1H-pyrazole-4-carboxamide] |
| 0.8 | 173 | > 10000 | – | Cn1cnc2c1CC[C@H]2NC(=O)c1cn(Cc2ccc(N3CC4(CC4)C3)nc2C(F)F)cn1 [Example 47, 1-[(6-{5-Azaspiro[2.3]hexan-5-yl}-2-(difluoromethyl)-pyridin-3-yl)methyl]-N-[(4R)-1-methyl-1H,4H,5H,6H-cyclopenta[d]imidazol-4-yl]-1H-imidazole-4-carboxamide] |
| 0.7 | 99 | > 10000 | – | CCc1nc(N2CC3(CC3)C2)ccc1Cn1cc(C(=O)N[C@@H]2CCc3c2ncn3C)nn1 [Example 20, 1-[(6-{5-Azaspiro[2.3]hexan-5-yl}-2-ethylpyridin-3-yl)methyl]-N-[(4R)-1-methyl-1H,4H,5H,6H-cyclo-penta[d]imidazol-4-yl]-1H-1,2,3-triazole-4-carboxamide] |
| 1.1 | 155 | > 10000 | – | Cn1cnc2c1CC[C@H]2NC(=O)c1cnn(Cc2ccc(N3CC4(CC4)C3)nc2C(F)F)c1 [Example 52, 1-[(6-{5-Azaspiro[2.3]hexan-5-yl}-2-(difluoromethyl)-pyridin-3-yl)methyl]-N-[(4R)-1-methyl-1H,4H,5H,6H-cyclopenta[d]imidazol-4-yl]-1H-pyrazole-4-carboxamide] |
| 4.7 | 495 | > 10000 | – | Cn1cnc2c1CC[C@H]2NC(=O)c1cnn(Cc2ccc(N3CC4C(C3)C4(F)F)nc2)c1 (stereo partly drawn) [Example 80, 1-[(6-{6,6-Difluoro-3-azabicyclo[3.1.0]hexan-3-yl}pyridin-3-yl)methyl]-N-[(4R)-1-methyl-1H,4H,5H,6H-cyclopenta[d]imidazol-4-yl]-1H-pyrazole-4-carboxamide] |
| 4.1 | 2660 | > 10000 | – | Cn1cnc2c1CC[C@H]2NC(=O)c1cnn(Cc2cnc(N3CC4CC4C3)cc2C(F)(F)F)c1 (stereo partly drawn) [Example 115, 1-[(6-{3-Azabicyclo[3.1.0]hexan-3-yl}-4-(trifluoromethyl)pyridin-3-yl)methyl]-N-[(4R)-1-methyl-1H,4H,5H,6H-cyclopenta[d]imidazol-4-yl]-1H-pyrazole-4-carboxamide] |
| 0.4 | 253 | > 10000 | – | Cc1c(Cn2cc(C(=O)N[C@@H]3CCc4c3ncn4C)cn2)ccc(N2CC3CC3C2)c1C#N (stereo partly drawn) [Example 193, 1-[(4-{3-azabicyclo[3.1.0]hexan-3-yl}-3-cyano-2-methylphenyl)methyl]-N-[(4R)-1-methyl-1H,4H,5H,6H-cyclopenta[d]imidazol-4-yl]-1H-pyrazole-4-carboxamide] |
| – | – | – | 160 | Cc1cc(=O)oc2cc(NC(=O)[C@H](CCCNC(=N)N)NC(=O)[C@H](Cc3ccccc3)NC(=O)[C@@H]3CCCN3)ccc12 [Example I1295, H-Pro-Phe-Arg-AMC] (H-Pro-Phe-Arg-{AMC}) |
| 1.6 | 560 | > 10000 | – | Cc1nc(N2CC3CC3C2)ccc1Cn1cc(C(=O)N[C@@H]2CCc3c2ncn3C)cn1 (stereo partly drawn) [Example 133, 1-[(6-{3-Azabicyclo[3.1.0]hexan-3-yl}-2-methylpyridin-3-yl)methyl]-N-[(4R)-1-methyl-1H,4H,5H,6H-cyclopenta[d]imidazol-4-yl]-1H-pyrazole-4-carboxamide] |
